Entries after “also recorded” stand apart in the source; their conditions may differ. One block for each compound: values may come before it. Non-standard residues stand in square brackets, D forms with d. Residues, ends and D or L forms follow the SMILES beside them. *: point of attachment. Sta = CC(C)C[C@H](N)[C@@H](O)CC(=O)O; Isovaleryl = CC(C)CC(=O)*
Columns and labels:
[1] = tested on: β-secretase endoprotease activity in chromaffin vesicle lysate; test: Effect of reducing agents on β-secretase endoprotease activity in chromaffin vesicles; assay type: biochemical, bovine; details: 1 mM; lysed vesicles, Z*Val-Lys-Met-MCA
Protocol: (§1) The β-secretase endoprotease activity was identified by incubating the chromaffin vesicle lysate (2-10 μl of 10-20 mg protein/ml) with the Z★Val-Lys-Met-MCA substrate (100 μM final concentration) and detecting AMC fluorescence. The chromaffin vesicle lysate was prepared as described in Example I. The endoprotease activity was determined as a function of pH by varying the pH of the incubation solution between 3.0 to 8.0 in 0.5 pH increments. Citric acid, sodium phosphate, and Tris-HCl buffers (100 mM final concentration) were used to adjust the pH of the incubation solutions between 3.0 to 5.5, 6.0 to 7.5, and 8.0, respectively. Duplicate samples at each pH increment (100 μl each) were distributed among 22 wells in a covered microtiter well plate and incubated at 37° C. for 8 hours in a water bath.
(§2) The effect of the reducing agent dithiothreitol (DTT) on β-secretase endoprotease activity was determined using the assay described in Example III. Briefly, the lysed vesicles were incubated with the substrate Z★Val-Lys-Met-MCA in the presence or absence of 1 mM DTT and the resulting fluorescence plotted as a function of pH. Both with and without DTT, β-secretase endoprotease activity was detected and in both cases that activity had pH optimum of about 4.0 to 6.0, which is consistent with the intravesicular pH of chromaffin vesicles.

[2] = target: T1, Peak I β-secretase endoprotease activity (cathepsin L) (Bos taurus, UniProt P25975); test: Protease inhibitors of β-secretase endoprotease activity in Peak I; assay type: biochemical, bovine; details: for Peak I (%): % of control (no inhibitor); for inhibition of Peak I activity, in words: text summary of Table IV; for β-secretase activity of Peak I: inhibitor at 1 μM (Example XVI)
T1 construct: from tissue; host or cells: bovine adrenal medulla chromaffin vesicles; Con A then Sephacryl S200, Peak I
T1 sequence (P25975 118-334): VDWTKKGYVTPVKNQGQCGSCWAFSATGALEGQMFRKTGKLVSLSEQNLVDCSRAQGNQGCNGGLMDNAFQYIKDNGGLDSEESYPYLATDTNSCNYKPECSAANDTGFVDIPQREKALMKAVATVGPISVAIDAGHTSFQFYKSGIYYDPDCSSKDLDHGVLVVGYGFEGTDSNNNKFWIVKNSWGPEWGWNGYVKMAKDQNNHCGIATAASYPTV
Protocol: The effect of the aminopeptidase M and the basic pH buffer used in the β-secretase endoprotease activity assay was determined. […] Three assays were conducted, one with aminopeptidase M in its basic pH buffer, another with the basic pH buffer but not aminopeptidase M, and a third without either the buffer or the aminopeptidase M. Briefly, the chromaffin vesicle lysate and the substrate Z★Val-Lys-Met-MCA were incubated for 30 minutes-at a specified pH and the resulting fluorescence measured. The aminopeptidase M in the basic pH buffer or:.that buffer alone (final concentration of 75 mM Tris-HCl pH 8.2) was added to the assay and incubated an additional 60 minutes at 37° C.
The protease inhibitor was added to each assay at the start of the reaction at the appropriate concentration. The extent of inhibition was expressed as a percentage of the activity without the inhibitor (control).

[3] = target: T2, Peak II β-secretase endoprotease activity (cathepsin B) (Bos taurus, UniProt P07688); test: Protease inhibitors of β-secretase endoprotease activity in Peak II; assay type: biochemical, bovine; details: for Peak II (%): % of control (no inhibitor); for inhibition of Peak II activity, in words: text summary of Table IV
T2 construct: from tissue; host or cells: bovine adrenal medulla chromaffin vesicles; Con A, Sephacryl S200 (Peak II), Mono Q (II-A, II-B)

[4] = tested on: 27 kDa and 31 kDa cysteine protease bands of Peak I; test: 125I-DCG-04 affinity labeling of Peak I; assay type: binding, bovine; details: inhibitor 1 μM
Protocol: An aliquot of Peak I was incubated at room temperature with 125I-DCG-04 for 30 minutes, and the affinity labeled β-secretase was then subjected to one-dimensional SDS-PAGE followed by electrophoretic transfer of proteins to nitrocellulose membranes, and 125I-DCG-04 labeled proteins were detected with streptavidin-HRP, as described previously (Greenbaum et al. Chem. Biol. 7:569-81, 2000, Greenbaum et al., Chemistry and Biology 10, 1085-1094, 2002; Greenbaum et al., Mol. Cell. Proteomics, 1:60-68, 2002).
The 31 kDa band resembles the molecular weight of the cysteine protease cathepsin B (Barrett et al., “Handbook of Proteolytic Enzymes,” Pub. Academic Press, SanDiego, pp 609-617, 1998; and Greenbaum et al., Mol. Cell. Proteomics, 1:60-68, 2002). The selective cathepsin B inhibitor, CA-074, was used to determine whether the 27 kDa or 31 kDa bands were responsible for the β-secretase activity of Peak I (Yamamoto et al., J. Mol. Biol. 227:942-944, 1992; Gour-Salin et al., J. Med. Chem. 36:720-725, 1993; Bogyo et al., Chem Biol. 1:27-38, 2000).

[5] = tested on: β-secretase endoprotease activity in chromaffin vesicle lysate; test: Protease inhibitors of β-secretase endoprotease activity in chromaffin vesicle lysate (Z*Val-Lys-Met-MCA cleavage, AMC fluorescence); assay type: biochemical, bovine; details: for % CONTROL: pH 5.5, with aminopeptidase M, activity as % of activity without inhibitor; for inhibition of β-secretase endoprotease activity in chromaffin vesicle lysate, in words: text summary of Table II
Protocol: as §1
As discussed above, endoprotease cleavage between the Met-MCA bond in the Z★Val-Lys-Met-MCA substrate produces fluorescent AMC, but endoprotease cleavage between the Lys-Met or Val-Lys bonds in that substrate produces non-fluorescent Lys-Met-MCA and Met-MCA peptides. To insure that the latter two endoprotease cleavages were detected, aminopeptidase M (20 μg/ml final concentration, BOEHRINGER […]) was added to each incubation solutions to produce fluorescent AMC from the Lys-Met-MCA and Met-MCA peptides. Prior to adding the aminopeptidase M, each incubation solution was adjusted to a pH 8.3 using Tris-HCl because aminopeptidase M functions at a basic pH. A second incubation at 37° C. for 1 hour in the water bath was conducted to complete the aminopeptidase M reaction.
Upon termination of that second incubation, AMC fluorescence was assayed using a fluorometer (IDEXX fluorometer, FCA Fluorescence Concentration Analyzer, cat. no. 10-105-2, BAXTER HEALTH CARE CORP., Mundelein, Ill.) at excitation and emission wavelengths of 365 and 450 nm, respectively. Standard AMC concentrations were also measured to quantitate relative fluorescence with the molar amount (pmol) of AMC generated by the secretase. The resulting AMC fluorescence reflects the endoprotease activity in cleaving either the Met-MCA, Lys-Met. and Val-Lys bonds in the Z★Val-Lys-Met-MCA substrate.
as §2
The effect of the aminopeptidase M and the basic pH buffer used in the β-secretase endoprotease activity assay was determined. The assay was conducted as described in Example VIII with DTT. Three assays were conducted, one with aminopeptidase M in its basic pH buffer, another with the basic pH buffer but not aminopeptidase M, and a third without either the buffer or the aminopeptidase M. Briefly, the chromaffin vesicle lysate and the substrate Z★Val-Lys-Met-MCA were incubated for 30 minutes-at a specified pH and the resulting fluorescence measured. The aminopeptidase M in the basic pH buffer or:.that buffer alone (final concentration of 75 mM Tris-HCl pH 8.2) was added to the assay and incubated an additional 60 minutes at 37° C. […] The assay conducted with aminopeptidase M and its basic pH buffer and that of the control assay having just the basic pH buffer produced approximately the same amount of fluorescence.
The effect of various protease inhibitors on β-secretase endoprotease activity in the lysate was determined at the pH optimum 5.5 in the assay described in Example IX containing aminopeptidase M. Protease inhibitors specific for various protease classes were used. […]

[6] = tested on: cathepsin activity in brain; details: administered to animals; cited from earlier work
[7] = tested on: primary chromaffin cell cultures; test: Aβ-peptide secretion by chromaffin cells (RIA of Aβ1-40 in media); assay type: cell-based; details: 50 mM, 15 minutes
Protocol: Primary chromaffin cell cultures containing approximately 2 million cells in each culture were produced using established methods (Hook et al., ibid.; and Tezapsidis et al., ibid.). Exocytosis of the contents of the vesicles in such cells was induced by exposing the cells to KCl (50 mM) or nicotine (10 μM) for 15 minutes.

increase in the β-secretase endoprotease activity [1]: approximately 5 fold
SMILES: O[C@H](CS)[C@H](O)CS (racemic) [DTT, dithiothreitol]

Peak I (%) ([2]; inhibitor 500 μM): 31% | inhibition of Peak I activity, in words [2]: significantly inhibited | Peak II (%) ([3]; inhibitor 500 μM): 72% | inhibition of Peak II activity, in words [3]: only slightly inhibited
SMILES: c1cnc2c(c1)ccc1cccnc12 [1,10 Phenanthroline]

β-secretase activity of Peak I [2]: not affected
SMILES: CCCNC(=O)[C@H]1O[C@@H]1C(=O)N[C@H](C(=O)N1CCC[C@H]1C(=O)O)[C@@H](C)CC [CA-074]
125I-DCG-04 labeling of Peak I bands in the presence of the inhibitor [4]: labeling of only the 27 kDa band

SMILES: CC(C)C[C@H](NC(=O)[C@@H](NC(=O)N[C@@H](Cc1ccccc1)C(=O)O)[C@@H]1CCN=C(N)N1)C(=O)N[C@H](C=O)Cc1ccccc1 [Chymostatin]
% CONTROL ([5]; inhibitor 10 μM): 11% | inhibition of β-secretase endoprotease activity in chromaffin vesicle lysate, in words [5]: greatly inhibited | Peak I (%) ([2]; inhibitor 10 μM): 0% | inhibition of Peak I activity, in words [2]: maximally inhibited | Peak II (%) ([3]; inhibitor 10 μM): 35% | inhibition of Peak II activity, in words [3]: maximally inhibited

% CONTROL ([5]; inhibitor 10 μM): 0% | inhibition of β-secretase endoprotease activity in chromaffin vesicle lysate, in words [5]: completely inhibited | Peak I (%) ([2]; inhibitor 10 μM): 0% | β-secretase activity of Peak I [2]: completed inhibited | Peak II (%) ([3]; inhibitor 10 μM): 0%
SMILES: CC(C)CCNC(=O)[C@H](CC(C)C)NC(=O)[C@H]1O[C@@H]1C(=O)O [E64c]
cathepsin activity in brain [6]: effectively block | inhibition of Peak I activity, in words [2]: maximally inhibited; also recorded: completely inhibited | inhibition of Peak II activity, in words [3]: maximally inhibited; also recorded: completely inhibited

% CONTROL ([5]; inhibitor 1 mM): 100% | Peak I (%) ([2]; inhibitor 1 mM): 99% | Peak II (%) ([3]; inhibitor 1 mM): 138%
SMILES: O=C(O)CN(CCN(CC(=O)O)CC(=O)O)CC(=O)O [EDTA, ethylenediaminetetraacetic acid]

% CONTROL ([5]; inhibitor 1 mM): 99% | Peak I (%) ([2]; inhibitor 1 mM): 108% | Peak II (%) ([3]; inhibitor 1 mM): 142%
SMILES: O=C(O)CN(CCOCCOCCN(CC(=O)O)CC(=O)O)CC(=O)O [EGTA]

SMILES: [Cl-].[K+] [KCl, potassium chloride]
increase in the concentration of Aβ1-40 peptide in the media relative to control media [7]: approximately 350 fold

SMILES: CC(=O)N[C@@H](CC(C)C)C(=O)N[C@@H](CC(C)C)C(=O)N[C@H](C=O)CCCNC(=N)N [Leupeptin]
% CONTROL ([5]; inhibitor 100 μM): 0% | inhibition of β-secretase endoprotease activity in chromaffin vesicle lysate, in words [5]: completely inhibited | Peak I (%) ([2]; inhibitor 100 μM): 0% | inhibition of Peak I activity, in words [2]: maximally inhibited; also recorded: completely inhibited | Peak II (%) ([3]; inhibitor 100 μM): 0% | inhibition of Peak II activity, in words [3]: maximally inhibited; also recorded: completely inhibited

SMILES: O=S(=O)(F)Cc1ccccc1 [PMSF, phenylmethylsulfonyl fluoride]
% CONTROL ([5]; inhibitor 100 μM): 58% | inhibition of β-secretase endoprotease activity in chromaffin vesicle lysate, in words [5]: significantly inhibited | inhibition of Peak I activity, in words [2]: did not significantly inhibit; also recorded: only slightly inhibited | inhibition of Peak II activity, in words [3]: did not significantly inhibit; also recorded: only slightly inhibited

SMILES: CC(C)CC(=O)N[C@H](C(=O)N[C@H](C(=O)N[C@@H](CC(C)C)[C@@H](O)CC(=O)N[C@@H](C)C(=O)N[C@@H](CC(C)C)[C@@H](O)CC(=O)O)C(C)C)C(C)C [Pepstatin A] (Isovaleryl-VV[Sta]A[Sta]-OH)
% CONTROL ([5]; inhibitor 10 μM): 78% | inhibition of β-secretase endoprotease activity in chromaffin vesicle lysate, in words [5]: slightly inhibited | Peak I (%) ([2]; inhibitor 100 μM): 85% | inhibition of Peak I activity, in words [2]: did not significantly inhibit; also recorded: slightly inhibited | Peak II (%) ([3]; inhibitor 100 μM): 132% | inhibition of Peak II activity, in words [3]: did not significantly inhibit; also recorded: increased the activity

SMILES: O=C(O)c1cc[c]([Hg][OH])cc1 [pHMB]
% CONTROL ([5]; inhibitor 1 mM): 35% | inhibition of β-secretase endoprotease activity in chromaffin vesicle lysate, in words [5]: inhibited | inhibition of β-secretase endoprotease activity in chromaffin vesicle lysate, in words ([5]; listed as PHMB): greatly inhibited | Peak I (%) ([2]; inhibitor 1 mM): 67% | inhibition of Peak I activity, in words [2]: slightly inhibited; also recorded: inhibited | Peak II (%) ([3]; inhibitor 1 mM): 68% | inhibition of Peak II activity, in words [3]: slightly inhibited; also recorded: inhibited

Source: US20040248232A1, “Method for treating Alzheimer's dementia” (priority 2003, published 2004)
